Results: patent publication US20230345990A1, “PROCESS FOR PRODUCTION OF CONCENTRATES OF CHELATED MINERALS WITH SOYBEAN AMINO ACIDS AND/OR SOYBEAM PROTEIN, AND RELATED PRODUCT” (Yessinergy Holding S.A., priority 2021, published 2023)

Key:
Type in all cases: in vivo, broilers (Cobb 500 male chicks)
[1] = Broiler performance (feed intake, weight gain, feed conversion) with different Zn sources
From the text: (§1) An experiment was developed with the purpose of investigating the effect of providing six different sources of Zn, at two levels of supplementation, in diets based on corn, soybean bran and phytase, with respect to performance and balance of Zn in broilers.
The experimental feeds used for the initial phase (1 to 21 days) and for growth (21 to 42 days) were formulated based on corn, soybean bran and phytase, following the recommendations proposed by Rostagno et al. (2017) for each phase.
Feed and water were freely provided throughout an experimental period from 1 to 42 days. The shed room temperature was maintained using 250 Watt infrared lamps and curtains on the sides of the shed. Light was provided for 22 hours/day in a scheme of 12 hours of natural light and 10 hours of artificial light. 2,400 lineage Cobb 500 male chicks were used, distributed in a randomized block design housed on the floor in a shed divided into 120 boxes of 1.0×2.0 meters (3,3×6.6 ft), with reused wood shavings bed, for the purpose of increasing the health challenge of birds. […]
The parameters of performance evaluated were feed intake (FI, kg/bird), weight gain (WG, kg/bird), feed conversion (FC, kg/kg).

[2] = Foot Pad Lesions (FPL) score in broilers at 42 days
Protocol: as §1
(§2) Feed and water were freely provided throughout an experimental period from 1 to 42 days. The shed room temperature was maintained using 250 Watt infrared lamps and curtains on the sides of the shed. Light was provided for 22 hours/day in a scheme of 12 hours of natural light and 10 hours of artificial light. 2,400 lineage Cobb 500 male chicks were used, distributed in a randomized block design housed on the floor in a shed divided into 120 boxes of 1.0×2.0 meters (3,3×6.6 ft), with reused wood shavings bed, for the purpose of increasing the health challenge of birds.
(§3) The birds were randomly distributed in a 6×2 factorial arrangement with six different sources of Zn and two levels of Zn (40 and 80 mg/kg), totaling 12 treatments with 10 repetitions and 20 animals per box (this being considered one experimental unit).
At 42 days of age, during individual weighing of the birds, the quality of the foot pad was determined, using the Foot Pad Lesions (FPL) score according to Berg (1998) and Van Ham et al. (2019), wherein both foot pads of all animals in the experiment were evaluated. Score 0 was given for cushions without any injuries, 1 for discolored cushions but without deep injuries, and score 2 for cushions with deep injuries (ulcers, blisters, etc.). As this is a subjective fact, only one person was responsible for the assessment of the foot pad score. The Injury Score for each experimental unit was calculated according to the following equation, with FPL index varying from 0 to 200 (all birds having score 2).

[3] = Zn balance in broilers (Zn in excreta, retained Zn)
Protocol: as §1, §2, §3
At 33 days of age, excreta were collected for 24 hours by placing a plastic canvas on the floor of each box to determine Zn content (mg/kg of dry matter in excreta), retained Zn (consumed mg minus excreted mg), and Zn balance (retained Zn/consumed Zn x 100).

[4] = level of zinc 40 mg/kg, 1 to 42 days
[5] = level of zinc 80 mg/kg, 1 to 42 days

- Percentage of Retained Zinc ([3]; level of zinc 40 mg/kg): 19.52%
- Zinc Excretion ([3]; level of zinc 40 mg/kg, excreta collected 24 h): 10.26 mg/bird
- Percentage of Retained Zinc ([3]; level of zinc 80 mg/kg): 47.23%
- Zinc Excretion ([3]; level of zinc 80 mg/kg, excreta collected 24 h): 9.17 mg/bird
- Percentage of Retained Zinc ([3]; mean of 40 and 80 mg/kg): 33.4%
- Zinc Excretion ([3]; mean of 40 and 80 mg/kg): 9.7 mg/bird
SMILES: O=S(=O)([O-])[O-].[Zn+2] [SF, ZnSO4]
- Feed Conversion ([1]; level of zinc 40 mg/kg): 1.52 kg consumption/kg
- Feed Consumption [1, 4]: 4.81 kg/bird
- Weight Gain [1, 4]: 3.17 kg/bird
- Feed Conversion ([1]; level of zinc 80 mg/kg): 1.51 kg consumption/kg
- Feed Consumption [1, 5]: 4.73 kg/bird
- Weight Gain [1, 5]: 3.14 kg/bird
- Feed Conversion ([1]; level of zinc 100 mg/kg, trend based on results from 40 to 80 ppm of Zn): 1.52 kg consumption/kg
- Feed Conversion ([1]; mean): 1.51 ab kg consumption/kg
- Feed Consumption ([1]; mean of 40 and 80 mg/kg): 4.77 kg/bird
- Weight Gain ([1]; mean of 40 and 80 mg/kg): 3.16 kg/bird
- Foot pad lesions % (42 days) ([2]; level of zinc 40 mg/kg): 18.98%
- Foot pad lesions % (42 days) ([2]; level of zinc 80 mg/kg): 25.09%
- Foot pad lesions % (42 days) ([2]; mean of 40 and 80 mg/kg): 22.0%
